This note sets out measurements from patent publication US9856284B2, “Solid forms of a thiophosphoramidate nucleotide prodrug” (Alios BioPharma, Inc., priority 2012, dated 2018).

In the test the test system is subgenomic HCV replicon in Huh-7 cells. Nature of the test: HCV replicon assay. The test is classed as cell-based. The settings on record: Huh-7 cells with subgenomic HCV replicon, luciferase (LUC) reporter, 72 hours, 1% DMSO; read-out: EC50 (50% inhibitory concentration) in HCV replicon cells. As to the method: Huh-7 cells containing the self-replicating, subgenomic HCV replicon with a stable luciferase (LUC) reporter were cultured in Dulbecco's modified Eagle's medium (DMEM) containing 2 mM L-glutamine and supplemented with 10% heat-inactivated fetal bovine serum (FBS), 1% penicillin-streptomyocin, 1% nonessential amino acids, and 0.5 mg/mL G418.
Determination of 50% inhibitory concentration (EC50) of compounds in HCV replicon cells were performed by the following procedure. On the first day, 5,000 HCV replicon cells were plated per well in a 96-well plate. On the following day, test compounds were solubilized in 100% DMSO to 100× the desired final testing concentration. Each compound was then serially diluted (1:3) up to 9 different concentrations. Compounds in 100% DMSO are reduced to 10% DMSO by diluting 1:10 in cell culture media. The compounds were diluted to 10% DMSO with cell culture media, which were used to dose the HCV replicon cells in 96-well format. The final DMSO concentration was 1%. The HCV replicon cells were incubated at 37° C. for 72 hours. At 72 hours, cells were processed when the cells are still subconfluent. Compounds that reduce the LUC signal are determined by Bright-Glo Luciferase Assay (Promega, Madison, Wis.). Percent Inhibition was determined for each compound concentration in relation to the control cells (untreated HCV replicon) to calculate the EC50.
A general note: In antiviral work, replicon cells carry a viral genome segment that copies itself.

For the molecule `CC(C)OC(=O)[C@H](C)NP(=S)(OC[C@H]1O[C@@H](n2ccc(=O)[nH]c2=O)[C@](C)(O)[C@@H]1O)Oc1ccccc1` (stereo partly drawn) [Compound 1, 2′-C-methyluridine-5′-(O-phenyl-N—(S)-1-(isopropoxycarbonyl)ethyl)thiophosphoramidate], the EC50 was below 1000 nM.
